Literature values, collected in patent US20250099551A1, “THERMOSTABLE FORMULATION OF A21G HUMAN INSULIN” (priority 2018, published 2025).

settings: 25° C.

Point of comparison: O=C(O)CN(CCOCCOCCN(CC(=O)O)CC(=O)O)CC(=O)O [EGTA], “Metal binding stability constant log K for zinc” value 12.6. Against it:
- O=C(O)CN(CCN(CC(=O)O)CC(=O)O)CC(=O)O [EDTA] — higher, 14.5
- O=C(O)CC(O)(CC(=O)O)C(=O)O [citrate] — lower, 4.93
- N[C@@H](Cc1c[nH]cn1)C(=O)O [histidine] — lower, 6.91
